Consider nine molecules from US5268003A (priority 1992, dated 1993).

Data set [1] can be described thus: Bleaching of ink stained cotton in Terg-o-tometer, change in B-axis of Hunter color scale. Particulars: pH 9, 40° C., 10 ppm A.O., P-Surf base (1.5 g/l), 15 minutes; corrected for detergent control. As for the experimental part: (§1) The bleaching performance of the peracids was evaluated against common stains such as tea (BC-1) and ink. Typically the cotton test pieces (3"×4") were stained with the appropriate stain and washed in a Terg-o-tometer for 15 minutes at 40° C. in a 500 mL aqueous wash solution. Dosage of the peracid was 10 ppm active oxygen.
Ink stain bleaching was measured as ΔB where the quantity ΔB is the change in the B-axis of the Hunter color scale. The ink stain is initially blue and loses color with bleaching thereby increasing the value of ΔB. Recorded ΔΔB values are ΔB values corrected for the cleaning accomplished by the detergent control.
(§2) Bleaching Results at 40° C., 10 ppm A.O., P-Surf base (1.5 g

A short description of data set [2]: Bleaching of tea (BC-1) stained cotton in Terg-o-tometer, reflectance change. Particulars: 10 ppm A.O.; for BC-1 ΔΔR pH 8: pH 8, 40° C.; for BC-1 ΔΔR pH 8 / BC-1 ΔΔR pH 9 / BC-1 ΔΔR pH 10: P-Surf base (1.5 g/l), 15 minutes, average of duplicates; for BC-1 ΔΔR pH 9: pH 9, 40° C.; for BC-1 ΔΔR pH 10: pH 10, 40° C. As for the experimental part:
as §1
Stain bleaching was measured reflectometrically using a Colorgard System/05 Reflectometer. Bleaching was indicated by an increase in reflectance, reported as ΔΔR. In general a ΔΔR of one unit is perceivable in a paired comparison while ΔΔR of two units is perceivable monadically. In reporting the reflectance change, the change in reflectance caused by general detergency has been accounted for. Thus ΔΔR can actually be expressed as:
ΔΔR=ΔR peracid+detergent-ΔR detergent
where ΔR is the reflectance difference of the stained fabric after and before washing.
BC-1 experiments were run in duplicate and the value shown is an average. In order to ensure that the solids were as finely dispersed as possible, one of the BC-1 experiments of each pair was usually conducted by predissolving the peracid in 1 ml of DMF; if this value was within 1 unit of the experiment using finely ground peracid, the values were averaged.
as §2

For data set [3] the following is noted: heavy-duty liquid detergent, pH 4.5.

Regarding `O=C(OO)c1ccc(C(=O)N2CCN(C(=O)c3ccc(C(=O)OO)cc3)CC2)cc1` [PCBPIP, N,N'-Di(4-percarboxybenzoyl)piperazine], the “INK ΔΔB pH 9” value in data set [1] was determined as 9.7. In addition, in data set [2], the “BC-1 ΔΔR pH 8” value was found to be 3.0, the “BC-1 ΔΔR pH 9” value stood at 2.9 and the “BC-1 ΔΔR pH 10” value turned out to be 3.1. For the same molecule, in data set [3], the “t1/2 at 40° C.” value stood at 79 days.
Regarding `O=C(NCCNC(=O)c1ccc(C(=O)OO)cc1)c1ccc(C(=O)OO)cc1` [PCBED, N,N'-Di(4-Percarboxybenzoyl)ethylenediamine], in data set [1], the “INK ΔΔB pH 9” value is listed as 19.1. In addition, in data set [2], the “BC-1 ΔΔR pH 8” value is on record as 10.6, the “BC-1 ΔΔR pH 9” value worked out at 9.0 and the “BC-1 ΔΔR pH 10” value is recorded as 5.9.
Turning to `O=C(CCCCCN1C(=O)c2ccccc2C1=O)OO` [PAP, N-phthaloylamino peroxycaproic acid, reference compound], the “t1/2 at 40° C.” value in data set [3] came out at 3 days.
As to `O=C(Nc1ccc(C(=O)OO)cc1)c1ccc(C(=O)Nc2ccc(C(=O)OO)cc2)cc1` [DPCAT, N,N'-Di(4-Percarboxyaniline)terephthalate], the “INK ΔΔB pH 9” value in data set [1] amounted to 3.1. Also, in data set [2], the “BC-1 ΔΔR pH 8” value stood at 1.6, the “BC-1 ΔΔR pH 9” value amounted to 1.5 and the “BC-1 ΔΔR pH 10” value was found to be 2.3. In data set [3], the “t1/2 at 40° C.” value was determined as 65 days.
As to `O=C(CCCCC(=O)OO)Nc1ccc(NC(=O)CCCCC(=O)OO)cc1` [DPAPD, N,N'-Di(percarboxyadipoyl)phenylenediamine], the “INK ΔΔB pH 9” value in data set [1] came to 8.0. For the same molecule, in data set [2], the “BC-1 ΔΔR pH 8” value was determined as 7.1, the “BC-1 ΔΔR pH 9” value is reported as 6.7 and the “BC-1 ΔΔR pH 10” value stood at 4.0. Moreover, the “t1/2 at 40° C.” value in data set [3] stood at 32 days.
As for `O=C(N[C@H]1CC[C@H](NC(=O)c2ccc(C(=O)OO)cc2)CC1)c1ccc(C(=O)OO)cc1` [PCBHEX, N,N'-Di(4-percarboxybenzoyl)-1,4-diaminocyclohexane], in data set [1], the “INK ΔΔB pH 9” value was 4.2. Further, in data set [2], the “BC-1 ΔΔR pH 8” value amounted to 0.9, the “BC-1 ΔΔR pH 9” value is given as 2.1 and the “BC-1 ΔΔR pH 10” value turned out to be 3.1.
For `O=C(Nc1ccccc1NC(=O)c1ccc(C(=O)OO)cc1)c1ccc(C(=O)OO)cc1` [1,2-PCBPD, N,N'-Di(4-percarboxybenzoyl)-1,2-phenylenediamine], the “INK ΔΔB pH 9” value in data set [1] worked out at 24.9. Further, in data set [2], the “BC-1 ΔΔR pH 8” value was determined as 4.4, the “BC-1 ΔΔR pH 9” value is listed as 4.1 and the “BC-1 ΔΔR pH 10” value was found to be 3.9. In addition, the “BC-1 ΔΔR pH 8 (DMF value in parenthesis)” value in data set [2] (pH 8, peracid predissolved in 1 ml of DMF, 40° C., P-Surf base) worked out at 8.1. The “BC-1 ΔΔR pH 9 (DMF value in parenthesis)” value in data set [2] (pH 9, peracid predissolved in 1 ml of DMF, 40° C., P-Surf base) was determined as 6.5. Further, the “t1/2 at 40° C.” value in data set [3] was 33 days.
`O=C(NCCCCNC(=O)c1ccc(C(=O)OO)cc1)c1ccc(C(=O)OO)cc1` [PCBBD, N,N'-Di(4-percarboxybenzoyl)-1,4-butanediamine]: in data set [1], the “INK ΔΔB pH 9” value is 28.9. Moreover, in data set [2], the “BC-1 ΔΔR pH 8” value is given as 9.5, the “BC-1 ΔΔR pH 9” value was 9.4 and the “BC-1 ΔΔR pH 10” value came out at 6.0. Moreover, the “t1/2 at 40° C.” value in data set [3] was found to be 15 days.
Taken in the same sequence, the figures for `O=C(CCC(=O)Nc1ccc(C(=O)OO)cc1)Nc1ccc(C(=O)OO)cc1` [SDPCA, N,N'-Succinoyl-di(4-percarboxy)aniline] were 16.8, 2.7, 3.3, 5.0 and 43 days.
